Usually IC50 stands for the concentration that inhibits the measured activity by half. As a reminder, the ED50 is the dose that gives a 50% effect, or the effect in half of the subjects. One may read the Ki as the dissociation constant of the complex between target and ligand, obtained from inhibition or displacement. A low value points to tighter binding.

“And” between values parts separate entries of the source, which are not always exact repeats. Equal values may be shown once. The source made the active and inactive calls. No cut-off for these calls is given here.

This is an account of results in ChEMBL document CHEMBL1126639, “Centrally acting serotonergic and dopaminergic agents. 2. Synthesis and structure-activity relationships of 2,3,3a,4,9,9a-hexahydro-1H-benz[f]indole derivatives” (J Med Chem, 1993).

Assay [1] has as its target T1, D(2) dopamine receptor (Rattus norvegicus, UniProt P61169). The experiment in a line: Inhibitory concentration against [3H]raclopride-labeled dopamine receptor D2 in rat striatum. Format: tissue-based.
For assay [2], the system named is Mus musculus. The experiment in a line: Effective dose on hypothermia in mouse when administered subcutaneously. Format: functional. The conditions noted are these: Mus musculus, sc; read-out: ED50.
Assay [3] deals with Mus musculus. The experiment in a line: Effective dose on hypothermia in mouse when administered through peroral route. Format: functional. Conditions: Mus musculus, po; read-out: ED50.
For assay [4], the system named is Mus musculus. The experiment in a line: Maximum decrease in temperature when compound is administered subcutaneously. Format: functional.
The target of assay [5] is T2, D(2) dopamine receptor (Homo sapiens, UniProt P14416). The experiment in a line: Intrinsic activity from GTP shift using CHO cell membranes expressing dopamine receptor D2. It counts as functional.
Assay [6] addresses T1, D(2) dopamine receptor. The experiment in a line: Inhibitory concentration against [3H]raclopride-labeled dopamine receptor D2 in rat striatum was estimated from single point experiment. compound was run at 1 uM.
Assay [7] concerns the target Sodium-dependent dopamine transporter (Rattus norvegicus) (UniProt P23977). The experiment in a line: (§1) Inhibition of firing rates of dopaminergic neurons in the substantia nigra pars compacta by intravenous injection in rats. Format: functional, tissue-based.
Assay [8] relates to Felis catus. The experiment in a line: Effective dose at which the sympathetic nerve activity (SND) has been reduced to 50% of the pretreatment value in anesthetized cat; In active. Format: functional, organism-based.
In assay [9] the target is T2, D(2) dopamine receptor. The experiment in a line: Binding affinity against [3H]U-86,170-labeled dopamine receptor D2 in cloned CHO cells. It counts as cell-based.
For assay [10], the target named is T1, D(2) dopamine receptor. The experiment in a line: Binding affinity for [3H]raclopride-labeled dopamine receptor D2 in rat striatum. It counts as tissue-based.
Assay [11] has as its system Rattus norvegicus. The experiment in a line: Effect on the synthesis rates of dopamine (DOPA accumulation) in the rat ventral limbic brain region at 43.2 uM/kg. It counts as functional, Limbic system.
The test system of assay [12] is Rattus norvegicus. The experiment in a line: Effect on the synthesis rates of serotonin (5-HTP accumulation) in the rat ventral limbic brain region 43.2 umol/kg. Format: functional, Limbic system.
The test system of assay [13] is Rattus norvegicus. The assay is described as §1. Format: functional.
The test system of assay [14] is Mus musculus. The experiment in a line: Antagonism of apomorphine for 0-10 minutes in reserpinized mice when a dose of 0.4 micro mol/kg is administered intraperitoneally. It counts as functional.
The subject of assay [15] is Mus musculus. The experiment in a line: Antagonism of apomorphine for 0-10 minutes in reserpinized mice when a dose of 4.3 micro mol/kg is administered intraperitoneally. It counts as functional.
In assay [16] the test system is Mus musculus. The experiment in a line: Antagonism of apomorphine for 0-10 minutes in reserpinized mice when a dose of 43 micro mol/kg is administered intraperitoneally. Format: functional.
The subject of assay [17] is Mus musculus. The experiment in a line: Antagonism of apomorphine for 10-20 minutes in reserpinized mice when a dose of 0.4 micro mol/kg is administered intraperitoneally. Format: functional.
The subject of assay [18] is Mus musculus. The experiment in a line: Ability to stimulate dopaminergic systems by effect on locomotor activity in reserpinized mice when a dose of 4.3 micro mol/kg is administered intraperitoneally. Format: functional.
Assay [19] has as its system Mus musculus. The experiment in a line: Ability to stimulate dopaminergic systems by effect on locomotor activity in reserpinized mice when a dose of 43 micro mol/kg is administered intraperitoneally. It counts as functional.
In assay [20] the test system is Mus musculus. The experiment in a line: Ability to stimulate dopaminergic systems by effect on locomotor activity in reserpinized mice when a dose of 0.4 micro mol/kg is administered intraperitoneally. It counts as functional.
For assay [21], the system named is Mus musculus. The experiment in a line: Antagonism of apomorphine in reserpinized mice when a dose of 4.3 micro mol/kg is administered intraperitoneally. It counts as functional.
Assay [22] relates to Mus musculus. The experiment in a line: Antagonism of apomorphine in reserpinized mice when a dose of 43 micro mol/kg is administered intraperitoneally. It counts as functional.
For assay [23], the system named is Mus musculus. The experiment in a line: Antagonism of apomorphine for 10-20 minutes in reserpinized mice when a dose of 4.3 micro mol/kg is administered intraperitoneally. Format: functional.
Assay [24] deals with Mus musculus. The experiment in a line: Antagonism of apomorphine for 10-20 minutes in reserpinized mice when a dose of 43 micro mol/kg is administered intraperitoneally. Format: functional.
Assay [25] concerns Mus musculus. The experiment in a line: Antagonism of apomorphine in reserpinized mice when a dose of 0.4 micro mol/kg is administered intraperitoneally. It counts as functional.
The test system of assay [26] is Mus musculus. The experiment in a line: Antagonism of apomorphine for 0-10 minutes in reserpinized mice when a dose of 3.6 micro mol/kg is administered intraperitoneally. Format: functional.
The subject of assay [27] is Mus musculus. The experiment in a line: Antagonism of apomorphine for 0-10 minutes in reserpinized mice when a dose of 36 micro mol/kg is administered intraperitoneally. Format: functional.
The test system of assay [28] is Mus musculus. The experiment in a line: Antagonism of apomorphine for 10-20 minutes in reserpinized mice when a dose of 3.6 micro mol/kg is administered intraperitoneally. Format: functional.
In assay [29] the test system is Mus musculus. The experiment in a line: Ability to stimulate dopaminergic systems by effect on locomotor activity in reserpinized mice when a dose of 3.6 micro mol/kg is administered intraperitoneally. It counts as functional.
The test system of assay [30] is Mus musculus. The experiment in a line: Ability to stimulate dopaminergic systems by effect on locomotor activity in reserpinized mice when a dose of 36 micro mol/kg is administered intraperitoneally. Format: functional.
Assay [31] relates to Mus musculus. The experiment in a line: Antagonism of apomorphine in reserpinized mice when a dose of 36 micro mol/kg is administered intraperitoneally. Format: functional.
Assay [32] has as its system Mus musculus. The experiment in a line: Antagonism of apomorphine for 10-20 minutes in reserpinized mice when a dose of 36 micro mol/kg is administered intraperitoneally. Format: functional.
Assay [33] has as its system Mus musculus. The experiment in a line: Antagonism of apomorphine in reserpinized mice when a dose of 3.6 micro mol/kg is administered intraperitoneally. Format: functional.

T2 sequence (P14416 whole entry): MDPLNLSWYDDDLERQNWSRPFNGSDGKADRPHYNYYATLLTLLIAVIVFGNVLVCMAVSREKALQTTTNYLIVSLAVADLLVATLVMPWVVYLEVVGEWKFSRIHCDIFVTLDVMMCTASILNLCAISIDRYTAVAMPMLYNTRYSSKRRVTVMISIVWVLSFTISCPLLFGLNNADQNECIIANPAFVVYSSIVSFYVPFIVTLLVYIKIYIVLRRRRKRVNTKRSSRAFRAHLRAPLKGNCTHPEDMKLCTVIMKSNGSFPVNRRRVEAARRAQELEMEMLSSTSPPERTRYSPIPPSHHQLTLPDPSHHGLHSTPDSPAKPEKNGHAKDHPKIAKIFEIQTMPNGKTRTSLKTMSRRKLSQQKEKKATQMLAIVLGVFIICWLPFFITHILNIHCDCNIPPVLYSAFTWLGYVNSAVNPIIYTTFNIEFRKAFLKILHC
T1 sequence (P61169 whole entry): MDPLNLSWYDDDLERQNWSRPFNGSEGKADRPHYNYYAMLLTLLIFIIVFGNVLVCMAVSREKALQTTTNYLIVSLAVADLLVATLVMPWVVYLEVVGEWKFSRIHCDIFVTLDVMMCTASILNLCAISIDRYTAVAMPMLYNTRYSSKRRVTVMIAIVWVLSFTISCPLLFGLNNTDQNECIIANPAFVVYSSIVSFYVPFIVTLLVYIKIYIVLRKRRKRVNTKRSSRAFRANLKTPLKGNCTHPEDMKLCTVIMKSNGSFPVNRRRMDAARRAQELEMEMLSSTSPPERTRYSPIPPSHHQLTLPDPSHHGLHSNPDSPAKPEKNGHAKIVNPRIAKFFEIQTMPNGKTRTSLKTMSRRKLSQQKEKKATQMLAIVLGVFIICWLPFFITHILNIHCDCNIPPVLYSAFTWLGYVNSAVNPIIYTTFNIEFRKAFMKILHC
Sodium-dependent dopamine transporter (Rattus norvegicus), sequence (P23977 whole entry): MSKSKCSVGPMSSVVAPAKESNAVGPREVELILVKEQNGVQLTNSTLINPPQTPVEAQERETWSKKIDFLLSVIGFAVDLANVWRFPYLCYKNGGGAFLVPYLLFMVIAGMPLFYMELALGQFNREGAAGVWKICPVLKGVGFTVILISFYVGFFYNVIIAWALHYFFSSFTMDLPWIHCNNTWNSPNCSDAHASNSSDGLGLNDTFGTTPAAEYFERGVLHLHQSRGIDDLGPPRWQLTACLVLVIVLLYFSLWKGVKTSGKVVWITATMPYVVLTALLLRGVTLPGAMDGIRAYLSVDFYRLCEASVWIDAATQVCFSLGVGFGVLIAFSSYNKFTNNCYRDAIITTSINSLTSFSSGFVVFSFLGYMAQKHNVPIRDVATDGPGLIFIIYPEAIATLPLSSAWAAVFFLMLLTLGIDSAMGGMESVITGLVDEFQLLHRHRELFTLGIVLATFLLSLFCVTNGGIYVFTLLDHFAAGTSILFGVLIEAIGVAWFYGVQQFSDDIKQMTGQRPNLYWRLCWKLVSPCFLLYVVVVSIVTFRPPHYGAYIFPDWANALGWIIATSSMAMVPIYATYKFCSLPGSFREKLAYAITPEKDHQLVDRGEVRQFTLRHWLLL

In assay [1], `COc1cccc2c1C[C@H]1CCN[C@@H]1C2` (racemic) yielded an IC50 above 1000 nM. Besides, the median effective dose (ED50) is 1.7 µmol/kg in assay [2] and above 125 µmol/kg in [3]. Also, the Max temperature decrease in assay [4] is 6.2.
Turning to `C=CCN1CC[C@@H]2Cc3c(O)cccc3C[C@H]21` (racemic), the Intrinsic activity in [5] was determined as 91%.
With `CCCN1CC[C@@H]2Cc3c(O)cccc3C[C@@H]21` (racemic), the Intrinsic activity in assay [5] is 61%.
Turning to `C=CCN1CC[C@@H]2Cc3cccc(OC)c3C[C@@H]21` (racemic), in assay [6], the IC50 is above 1000 nM.
For the compound `C=CCN1CC[C@@H]2Cc3c(cccc3OC)C[C@H]21` (racemic), the ED50 in assay [7] was > 10.7 µmol/kg and 6.8 µmol/kg. In addition, the ED50 entry in [8] is “inactive”.
With `CCCN1CC[C@@H]2Cc3c(O)cccc3C[C@H]21` (racemic) [listing 1 of 2 here], the results for the Ki in [9] and in [10] were 2.4 nM and 17 nM, respectively. Besides, the Control in assay [11] is recorded as -47%; in assay [12], -4%. In addition, the ED50 in assay [13] is 0.003 µmol/kg. Further, the Locomotor activity in assay [14] was determined as 41; in assay [15], 46; in assay [16], 29; in assay [17] it was 71; in assay [18] it was 912; in assay [19], 1539. Besides, the Locomotor activity is reported as 423 in assay [20]; 69 in assay [21]; 114 in [22]; 38 in [23]; 23 in assay [24]; 98 in [25].
In [1], `CCCN1[C@H](C)C[C@@H]2Cc3cccc(OC)c3C[C@@H]21` (racemic) yielded an IC50 above 1000 nM.
Regarding `CCCN1CC[C@H]2Cc3c(cccc3OC)C[C@@H]21`, in assay [1], the IC50 is above 1000 nM.
On to `Oc1cccc2c1C[C@H]1CCN(CC3CC3)[C@@H]1C2` (racemic), for which the Intrinsic activity in assay [5] was 73%. In assay [10], this compound displayed a Ki of 118 nM. Further, the Locomotor activity in assay [14] was determined as 83; in assay [26], 31; in assay [27], 25; in assay [17], 88; in [28], 60; in assay [29], 539. For the same compound, the Locomotor activity is listed as 1033 in assay [30]; 1 in [20]; 117 in [31]; 49 in [32]; 129 in assay [25]; 163 in [33].
For `CCCN1CC[C@@H]2Cc3c(O)cccc3C[C@H]21` (racemic) [listing 2 of 2 here], in assay [5], the Intrinsic activity is 79%.
